Assay [1] deals with T1, Cystathionine gamma-lyase (Homo sapiens, UniProt P32929). Kind of assay: Inhibition of cystathionine gamma-lyase (unknown origin) assessed as reduction in cysteine formation from CPM using L-cystathionine pre-incubated for 15 min followed by L-cystathionine and CPM addition and measured after 7 mins by fluorescence-based primary assay.
A further assay is filed under the species Homo sapiens. Kind of assay: Selectivity for cystathionine gamma-lyase (unknown origin) over human recombinant CBS.
The target in assay [2] is T1, Cystathionine gamma-lyase. Kind of assay: Inhibition of cystathionine gamma-lyase (unknown origin) assessed as reduction in cysteine formation from CPM at 40 uM using L-cystathionine incubated for 7 mins by fluorescence-based primary assay.
For assay [3], the target named is T1, Cystathionine gamma-lyase. The assay is described as follows: Reversible inhibition of cystathionine gamma-lyase (unknown origin) assessed as reduction in cysteine formation from CPM using L-cystathionine at 50 uM incubated for 2 hrs followed by dialysis for 18 to 48 hrs by fluorescence-based primary assay.
For assay [4], the target named is T1, Cystathionine gamma-lyase. The assay is described as follows: Inhibition of cystathionine gamma-lyase (unknown origin) assessed as reduction in H2S production at 40 uM using AzMC probe by fluorescence based assay.
The target of assay [5] is T2, Cystathionine beta-synthase (Homo sapiens) (UniProt P35520).
T2 sequence (whole entry): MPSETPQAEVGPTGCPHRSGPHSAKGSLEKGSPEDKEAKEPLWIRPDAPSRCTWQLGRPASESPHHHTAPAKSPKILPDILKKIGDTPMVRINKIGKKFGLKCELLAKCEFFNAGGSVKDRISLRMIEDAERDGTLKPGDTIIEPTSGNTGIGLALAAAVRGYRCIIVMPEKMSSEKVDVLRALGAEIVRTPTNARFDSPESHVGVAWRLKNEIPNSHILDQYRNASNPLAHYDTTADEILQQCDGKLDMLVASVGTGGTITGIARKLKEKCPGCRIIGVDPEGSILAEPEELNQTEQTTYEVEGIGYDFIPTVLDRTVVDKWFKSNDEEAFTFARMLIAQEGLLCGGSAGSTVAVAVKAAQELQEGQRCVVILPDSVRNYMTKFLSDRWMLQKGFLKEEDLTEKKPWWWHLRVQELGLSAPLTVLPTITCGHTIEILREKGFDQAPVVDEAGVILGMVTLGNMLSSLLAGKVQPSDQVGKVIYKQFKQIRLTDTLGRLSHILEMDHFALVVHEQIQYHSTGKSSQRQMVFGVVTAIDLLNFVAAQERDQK
Kind of assay: Inhibition of human recombinant CBS assessed as reduction in H2S production at 40 uM using AzMC probe by fluorescence based assay.

Assay [6] deals with T1, Cystathionine gamma-lyase. The assay is described as follows: Inhibition of cystathionine gamma-lyase (unknown origin).

Active and inactive are the calls of the source. No cut-off for these calls is given here. Bounds are passed on as bounds.

The values below come from ChEMBL document CHEMBL4130591, “2-Arylidene Hydrazinecarbodithioates as Potent, Selective Inhibitors of Cystathionine γ-Lyase (CSE)” (ACS Med Chem Lett, 2017).

T1 sequence (P32929 whole entry): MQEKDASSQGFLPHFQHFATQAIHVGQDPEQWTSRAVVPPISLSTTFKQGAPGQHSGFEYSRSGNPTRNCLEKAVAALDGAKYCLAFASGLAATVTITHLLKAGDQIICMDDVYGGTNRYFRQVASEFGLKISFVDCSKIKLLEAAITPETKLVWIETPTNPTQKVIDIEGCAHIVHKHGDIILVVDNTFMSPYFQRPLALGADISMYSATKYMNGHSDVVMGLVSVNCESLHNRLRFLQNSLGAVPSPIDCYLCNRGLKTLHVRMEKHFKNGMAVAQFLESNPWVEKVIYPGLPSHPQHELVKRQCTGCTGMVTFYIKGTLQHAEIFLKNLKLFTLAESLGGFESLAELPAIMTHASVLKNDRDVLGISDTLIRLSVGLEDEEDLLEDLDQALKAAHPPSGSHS

By IC50 is commonly meant the concentration at which inhibition is half-maximal. For the compound `O=C(CSC(=S)N/N=C/c1ncccc1F)Nc1ccc(C(F)(F)F)cc1`, in assay [1], the IC50 was found to be 6 µM.

Turning to `O=C(CSC(=S)N/N=C/c1ccccn1)Nc1ccc(F)cc1`, the IC50 in assay [1] was greater than 100 µM.

For the compound `CSC(=S)N/N=C/c1cc[nH]n1`, the IC50 in assay [1] was 15 µM.

Turning to `CSC(=S)N/N=C/c1ccncc1`, in assay [1], the IC50 amounted to 40 µM.

`CSC(=S)N/N=C/c1cccc(Br)n1`: the IC50 in assay [1] was 12 µM.

For `COc1ccc(NC(=O)CSC(=S)N/N=C/c2nn(C)cc2Cl)cc1`, the IC50 in assay [1] was found to be 2.7 µM.

Regarding `CC(C)(C)c1ccc(NC(=O)CSC(=S)N/N=C/c2ncccc2F)cc1`, the IC50 in assay [1] is 2 µM.

Regarding `CC(C)(C)c1ccc(NC(=O)CSC(=S)N/N=C/c2ccncc2)cc1`, in assay [1], the IC50 came out at 40 µM.

On to `COc1ccc(NC(=O)CSC(=S)N/N=C/c2ncccc2F)cc1`, for which the IC50 in assay [1] is 1.2 µM. Also, the Selectivity ratio in the assay filed under Homo sapiens was found to be 400.

As to `CSC(=S)N/N=C/c1cscn1`, the IC50 in assay [1] turned out to be 7 µM.

As a reminder, the inhibition is the share of the control response that was lost under treatment. Consider `CSC1=NNC(c2ccccn2)S1` (stereo not given), for which the inhibition in assay [2] is greater than 30%. Also, the inhibition entry in assay [3] and in assay [4] was “Active” in each case. Besides, the inhibition entry in assay [5] is “inactive”. Also, the IC50 in assay [1] came out at 6 µM.

Take `CSC(=S)N/N=C/c1nn(C)cc1Cl`: the IC50 in assay [1] came to 6 µM.

As for `O=C(CSC(=S)N/N=C/c1ccccn1)Nc1ccccc1`, the IC50 in assay [1] was determined as 6 µM.

Consider `Cc1cccc(/C=N/NC(=S)SCC(=O)Nc2ccc(C(C)(C)C)cc2)n1`, for which the IC50 in assay [1] came out at 6 µM.

For the compound `CSC(=S)N/N=C/c1cccc(C)n1`, the IC50 in assay [1] was found to be 5 µM.

On to `CSC(=S)N/N=C/c1ccc(Br)cn1`, for which, in assay [1], the IC50 was found to be 10 µM.

For `CC(C)(C)c1ccc(NC(=O)CSC(=S)N/N=C/c2cccc(Br)n2)cc1`, the IC50 in assay [1] came to 15 µM.

In assay [6], `N=C1C=C(N)C(=O)c2[nH]c(=O)ccc21` returned an IC50 of 6.3 µM.

Turning to `CC(C)(C)c1ccc(NC(=O)CSC(=S)N/N=C/c2cccnc2)cc1`, the IC50 in assay [1] was determined as 12 µM.

Turning to `Cc1ccc(NC(=O)CSC(=S)N/N=C/c2ncccc2C)cc1`, the IC50 in assay [1] turned out to be 2.5 µM.

Consider `CSC(=S)N/N=C/c1cnccn1`, for which the IC50 in assay [1] was determined as 15 µM.

`CSC(=S)N/N=C/c1cc2ccccc2n1C`: in assay [1], the half-inhibitory concentration (IC50) was greater than 100 µM.

For the compound `CSC(=S)N/N=C/c1ccccn1`, the IC50 in assay [1] came out at 6 µM.

Regarding `CC(C)(S)[C@@H](N)C(=O)O` [PENICILLAMINE], half-maximal inhibition in assay [6] (IC50) required 270 µM.

With `Cc1ccc(NC(=O)CSC(=S)N/N=C/c2nn(C)cc2Cl)cc1`, in assay [1], the IC50 was 3 µM.

Turning to `CSC(=S)N/N=C/c1c[nH]c2ccccc12`, in assay [1], the IC50 is greater than 100 µM.

With `CSC(=S)N/N=C/c1ncccc1C`, in assay [1], the IC50 is 6 µM.

`CSC(=S)N/N=C/c1cccnc1`: the IC50 in assay [1] stood at 50 µM.

For the compound `O=C(CSC(=S)N/N=C/c1ccccn1)Nc1cccc(Br)c1`, the IC50 in assay [1] was greater than 100 µM.

Turning to `COc1ccc(NC(=O)CSC(=S)N/N=C/c2cccc(C)n2)cc1`, the IC50 in assay [1] stood at 1.9 µM.

As to `Cc1ccc(NC(=O)CSC(=S)N/N=C/c2cccc(Br)n2)cc1`, the IC50 in assay [1] is 10 µM.

Regarding `Cc1ccc(NC(=O)CSC(=S)N/N=C/c2ccccn2)cc1`, the IC50 in assay [1] is 2 µM.

Turning to `COc1ccc(NC(=O)CSC(=S)N/N=C/c2ccccn2)cc1`, in assay [1], the IC50 was found to be 2 µM.

Take `Cc1ccc(NC(=O)CSC(=S)N/N=C/c2cccnc2)cc1`: in assay [1], the IC50 was found to be 25 µM.

Regarding `COc1ccc(NC(=O)CSC(=S)N/N=C/c2ccc(Br)cn2)cc1`, in assay [1], the IC50 was greater than 100 µM.

As to `Cn1cc(Cl)c(/C=N/NC(=S)SCC(=O)Nc2ccc(C(C)(C)C)cc2)n1`, in assay [1], the half-inhibitory concentration (IC50) was found to be 6 µM.

Consider `CC(C)(C)c1ccc(NC(=O)CSC(=S)N/N=C/c2cnccn2)cc1`, for which the IC50 in assay [1] is greater than 100 µM.

Regarding `Cc1ccc(NC(=O)CSC(=S)N/N=C/c2ncccc2F)cc1`, the IC50 in assay [1] stood at 2 µM.

Take `CC(C)(C)c1ccc(NC(=O)CSC(=S)N/N=C/c2ccccn2)cc1`: in assay [1], the half-inhibitory concentration (IC50) was 3 µM.

Consider `CS/C(S)=N/N=C(\C)c1ccccn1`, for which the IC50 in assay [1] is greater than 100 µM.

On to `Cc1ccc(NC(=O)CSC(=S)N/N=C/c2cccc(C)n2)cc1`, for which the IC50 in assay [1] came to 3.5 µM.

With `COc1ccc(NC(=O)CSC(=S)N/N=C/c2cscn2)cc1`, the IC50 in assay [1] was found to be 2.1 µM.

For the compound `CSC(=S)N/N=C/c1ncccc1F`, in assay [1], the 50% inhibitory concentration (IC50) is 5 µM.

In the case of `C#CCNC(=O)[C@H]1CSC(=O)N1`, 30 µM corresponded to half-maximal inhibition in assay [6] (IC50).

`NCCO/C=C/[C@H](N)C(=O)O`: in assay [6], half-maximal inhibition (IC50) was put at 1.1 µM.
